We go through 27 molecules from patent US20110065208A1, “DETERMINATION AND ESTIMATION OF ABSORPTION AND DISTRIBUTION OF SUBSTANCES IN BRAIN TISSUE” (SOVICELL GMBH, priority 2008, published 2011).

Structures are written as SMILES. Read-outs that look alike come from different tables or passages of the source.

A short description of data set [1]: Brain lipid-water partition coefficient log MAbrain (membrane affinity) on immobilized brain lipid membranes. Format: physicochemical. The note with it: for logMA_brain: Table 6, parameter set for free fraction in brain. As to the method:
440 mg of a brain lipid extract (Avanti Polar Lipids Inc., USA) are dissolved in 50 mL of chloroform. This solution is evaporated under reduced pressure in a glass flask in a rotating rotary evaporator, wherein a thin lipid film deposits on the wall.
The lipid film is swollen overnight in a water vapor atmosphere; subsequently, 88 mL of a buffer (20 mM HEPES, pH 7.0, 30 mM NaCl, 2 mM CaCl2) are added, and the lipid film is vesiculated by means of a high-pressure homogenizer.
5 g of the carrier material provided above are added to the vesicle solution thus produced and incubated overnight. Excess lipid is removed by washing three times with buffer (20 mM HEPES, pH 7.0, 30 mM NaCl, 2 mM CaCl2). Finally, this is followed by rebuffering in PBS (phosphate-buffered saline, 10 mM sodium phosphate, 0.9% NaCl, pH 7.4) and filling up to 25 mL with buffer. The suspension obtained is then used to determine the brain lipid-water partition coefficient, as described below.
To determine the brain lipid-water partition coefficient, a total of 5 wells of a 96-well microtiter plate are filled as follows: • Well 1: 405 μL PBS • Well 2: 375 μL PBS+30 μL suspension (see 2.) • Well 3: 357 μL PBS+48 μL suspension (see 2.) • Well 4: 338 μL PBS+77 μL suspension (see 2.) • Well 5: 405 μL PBS.
To each of these wells, 45 μL of a 500 μM solution of trifluoperazine in PBS/10% DMSO are added, and after mixing by resuspension, the solid body is separated from the supernatant by sedimentation. The concentration of the substance in the supernatant is quantified by UV measurement, and the brain lipid-water partition coefficient log MAbrain is calculated through the following equation: […]
In the equation are: • Vtotal Total volume per well • Vlipid Lipid volume per well • ctotal Substance concentration of wells 1 and 5 without binding partner • cwater Substance concentration in the supernatant of wells 2-4 with binding partner.
To determine the brain lipid-water partition coefficient, two 96-well microtiter plates are filled row by row as follows: • Row 1: 405 μL PBS • Row 2: 375 μL PBS+30 μL suspension (see 2.) • Row 3: 357 μL PBS+48 μL suspension (see 2.) • Row 4: 338 μL PBS+77 μL suspension (see 2.) • Row 5: 285 μL PBS+120 μL suspension (see 2.) • Row 6: 210 μL PBS+195 μL suspension (see 2.) • Row 7: 105 μL PBS+300 μL suspension (see 2.) • Row 8: 405 μL PBS.
A broad binding range is covered by this filling of the plates. […] After mixing by resuspension, the solid body is separated from the supernatant by sedimentation.
The concentration of the substance in the supernatant is quantified by HPLC, and the brain lipid-water partition coefficient log MAbrain is calculated through the abovementioned equation (4), wherein, in this case, Vtotal is the total volume per well, Vlipid is the lipid volume per well, ctotal is the substance concentration of rows 1 and 8 without binding partner, and cwater is the substance concentration in the supernatant of wells 2-7 with binding partner.

Data set [2] is described as follows: log K^B/F, bound to free fraction in blood plasma calculated from KD^HSA and KD^AGP. The note with it: Table 4; calculated with [HSA] 588.2 μM, [AGP] 24.4 μM. It is filed as in vitro ADME. The text has this: The log K^B/F value represents the logarithmized ratio of the bound fraction to the free fraction in blood plasma, which has been approximately calculated from the dissociation constants KD^AGP and KD^HSA according to:
[formula] • fu Free substance concentration in plasma • [drug]total^plasma Total substance concentration in plasma • [HSA]

The subject of data set [3] is T1, AGP (α1-acid glycoprotein).
T1 construct: fused on or other part: immobilised on silica beads (TRANSIL solid support)
Put plainly: AGP binding constants (TRANSIL AGP Binding Kit).

The target in data set [4] is HSA (human serum albumin) (Homo sapiens, UniProt P02768). Put plainly: HSA binding constants (TRANSIL HSA Binding Kit). The text has this: In the equation are: • [drug]bound: Concentration of bound substance • [drug]free: Concentration of free substance in the supernatant • [protein]: Protein concentration in the respective wells.
Sequence of HSA (human serum albumin) (P02768 25-609): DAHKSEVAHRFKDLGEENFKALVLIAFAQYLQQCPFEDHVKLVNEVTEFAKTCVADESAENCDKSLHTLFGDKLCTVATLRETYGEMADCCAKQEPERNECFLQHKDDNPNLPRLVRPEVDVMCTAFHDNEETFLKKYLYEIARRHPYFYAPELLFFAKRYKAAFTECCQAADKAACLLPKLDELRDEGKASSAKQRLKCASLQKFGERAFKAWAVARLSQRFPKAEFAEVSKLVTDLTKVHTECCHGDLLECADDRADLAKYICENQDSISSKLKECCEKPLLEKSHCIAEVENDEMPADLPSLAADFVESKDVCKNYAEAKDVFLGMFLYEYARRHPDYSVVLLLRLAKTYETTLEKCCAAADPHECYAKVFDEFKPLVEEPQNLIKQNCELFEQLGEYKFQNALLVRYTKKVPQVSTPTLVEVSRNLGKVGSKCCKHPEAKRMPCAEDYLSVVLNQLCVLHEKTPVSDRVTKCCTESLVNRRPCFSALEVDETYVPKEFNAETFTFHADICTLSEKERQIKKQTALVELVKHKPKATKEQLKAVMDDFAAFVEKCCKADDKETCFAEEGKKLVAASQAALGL
The conditions of data set [5]: cited from earlier work.
The conditions of data set [6]: Table 6; free fraction in brain; cited from earlier work.
Data set [7] can be described thus: log BB estimated by QSAR equation (9). The settings on record: Table 5; validation set, calculated by equation (9). As to the method: To estimate the plasma-brain partition coefficients, a multilinear regression was carried out according to the equation:
log BB=A*log MAbrain+B*PSA+C*MW+D*log K^B/F+E. (6)

[8] abbreviates: Table 1, PBS pH 7.4, quantified by HPLC.
Setting [9] is: Table 4, repeated parameter set.
Where [10] appears, read: Table 4, test set for multilinear regression.
Setting [11] is: Table 5, values from the literature.

Regarding `CC(=O)Oc1ccccc1C(=O)O` [Acetylsalicylic acid, acetylsalicylic acid], the logMAbrain in data set [1] (setting [8]) and in data set [1] (setting [9]) was 1.40 throughout. Further, in data set [2], the “logK^B/F” value is 0.23. In addition, the Kd (commonly a measure of binding affinity in units of concentration) in data set [3] was determined as 460 µM; in data set [4] it was 360 µM. Also, the logBB in data set [5] (setting [10]) is reported as −0.5.

Take `CN(C)CCC=C1c2ccccc2CCc2ccccc21` [Amitryptilline, amitryptilline]: the fu_brain in data set [6] is 0.009. In data set [1], this molecule registered a logMA_brain of 2.94. Also, in data set [7], the logBB_calc is 1.38. The logBB in data set [5] (setting [11]) is given as 0.87.

Take `Cc1cc(=O)n(-c2ccccc2)n1C` [Antipyrine, antipyrine]: the logMAbrain in data set [1] (setting [8]) and in data set [1] (setting [9]) was 1.33 in each case. In addition, the “logK^B/F” value in data set [2] is −0.54. Further, the Kd in data set [3] (Table 3, quantified by HPLC, read-out: KD^AGP) worked out at 380 µM; in data set [4], 2700 µM. Further, the logBB in data set [5] (setting [10]) was −0.1.

In the case of `Cn1c(=O)c2c(ncn2C)n(C)c1=O` [Caffeine, caffeine], the fu_brain in data set [6] is listed as 0.52. In addition, the logMAbrain in data set [1] (setting [8]) and in data set [1] (setting [9]) was 1.36 throughout. This molecule gave a logMA_brain in data set [1] of 1.36. The molecule further came in with a Kd in data set [3] of 580 µM.

Consider `NC(=O)N1c2ccccc2C=Cc2ccccc21` [Carbamazepine, carbamazepine], for which the fu_brain in data set [6] is recorded as 0.1185. For the same molecule, the logMA_brain in data set [1] came to 1.79. Moreover, the logBB_calc in data set [7] is −0.09. The logBB in data set [5] (setting [11]) is 0.

As for `CN(C)CCCN1c2ccccc2Sc2ccc(Cl)cc21` [Chlorpromazine, chlorpromazine], in data set [6], the fu_brain is reported as 0.002. Further, the logMAbrain in data set [1] (setting [8]) and in data set [1] (setting [9]) was 3.70 throughout. In addition, in data set [1], the logMA_brain is listed as 3.70. The Kd in data set [3] was 0.72 µM.

Consider `CN/C(=N/CCSCc1nc[nH]c1C)NC#N` [Cimetidine, cimetidine], for which the logMAbrain in data set [1] (setting [8]) and in data set [1] (setting [9]) was 1.80 in each case. Also, the “logK^B/F” value in data set [2] is −0.13. The Kd was 250 µM in data set [3] and 920 µM in data set [4]. In addition, the logBB in data set [5] (setting [10]) is listed as −1.42.

Take `Clc1cccc(Cl)c1N=C1NCCN1` [Clonidine, clonidine]: the logMAbrain in data set [1] (setting [8]) and in data set [1] (setting [9]) was 1.30 throughout. Further, the “logK^B/F” value in data set [2] is listed as −0.17. Also, the Kd in data set [3] was found to be 69 µM; in data set [4], 1900 µM. The logBB in data set [5] (setting [10]) was 0.11.

Consider `CNCCCN1c2ccccc2CCc2ccccc21` [Desipramine, desipramine], for which the Kd turned out to be 5.1 µM in data set [3] and 200 µM in data set [4]. In addition, in data set [5] (setting [10]), the logBB is given as 1.2.

Consider `CNCCC(Oc1ccc(C(F)(F)F)cc1)c1ccccc1` (stereo not shown) [Fluoxetine, fluoxetine], for which, in data set [6], the fu_brain was 0.004. Besides, in data set [1], the logMA_brain was 3.52. The logBB_calc in data set [7] is on record as 1.29.

On to `O=C(CCCN1CCC(O)(c2ccc(Cl)cc2)CC1)c1ccc(F)cc1` [Haloperidol], for which, in data set [6], the fu_brain is reported as 0.011. The same molecule came in with a logMA_brain in data set [1] of 2.7.

Regarding `CC(C)Cc1ccc(C(C)C(=O)O)cc1` (stereo not shown) [Ibuprofen, ibuprofen], the logMAbrain in data set [1] (setting [8]) and in data set [1] (setting [9]) was 1.70 in each case. Further, in data set [2], the “logK^B/F” value was 3.14. For the same molecule, in data set [3], the dissociation constant (Kd) was 670 µM. The logBB in data set [5] (setting [10]) was −0.18.

Regarding `CN(C)CCCN1c2ccccc2CCc2ccccc21` [Imipramine, imipramine], the Kd in data set [3] was 3.1 µM; in data set [4], 220 µM. The logBB in data set [5] (setting [10]) is 0.83.

For `COc1ccc2c(c1)c(CC(=O)O)c(C)n2C(=O)c1ccc(Cl)cc1` [Indomethacin, indomethacin], the logMAbrain in data set [1] (setting [8]) and in data set [1] (setting [9]) was 2.30 in each case. Further, the “logK^B/F” value in data set [2] was 2.97. The same molecule yielded an equilibrium dissociation constant (Kd) in data set [3] of 43 µM. In addition, the logBB in data set [5] (setting [10]) is −1.26.

For the molecule `CCN(CC)CC(=O)Nc1c(C)cccc1C` [Lidocaine, lidocaine], in data set [7], the logBB_calc was −0.08.

Regarding `CN1CCN2c3ccccc3Cc3ccccc3C2C1` (stereo not shown) [Mianserin, mianserin], the logBB_calc in data set [7] is 1.47. Also, the logBB in data set [5] (setting [11]) is 0.99.

Molecule `CCCCC1C(=O)N(c2ccccc2)N(c2ccccc2)C1=O` [Phenylbutazone, phenylbutazone] came in with a Kd in data set [3] of 70 µM. In addition, in data set [5] (setting [10]), the logBB is listed as −0.52.

On to `O=C1NC(=O)C(c2ccccc2)(c2ccccc2)N1` [Phenytoin], for which the fu_brain in data set [6] is listed as 0.082.

With `CCN(CC)CCOC(=O)c1ccc(N)cc1` [Procaine, procaine], the logBB_calc in data set [7] is −0.41. Besides, in data set [5] (setting [11]), the logBB is reported as 0.05.

In the case of `CN(C)CCCN1c2ccccc2Sc2ccccc21` [Promazine, promazine], the logMAbrain in data set [1] (setting [8]) and in data set [1] (setting [9]) was 3.20 each time. The “logK^B/F” value in data set [2] is reported as 1.33. The Kd was determined as 1.6 µM in data set [3] and 99 µM in data set [4]. For the same molecule, the logBB in data set [5] (setting [10]) is 1.23.

Consider `CC(C)NCC(O)COc1cccc2ccccc12` (stereo not shown) [Propranolol, propranolol], for which the logMAbrain in data set [1] (setting [8]) and in data set [1] (setting [9]) was 2.70 in each case. For the same molecule, the “logK^B/F” value in data set [2] is recorded as 0.74. The Kd in data set [3] was 5.4 µM; in data set [4] it was 610 µM. Further, in data set [5] (setting [10]), the logBB was 0.64.

`C=C[C@H]1C[N@@]2CC[C@H]1C[C@@H]2[C@@H](O)c1ccnc2ccc(OC)cc12` [Quinidine, quinidine]: the logMAbrain in data set [1] (setting [8]) and in data set [1] (setting [9]) was 2.10 each time. In data set [3], this molecule registered a Kd of 13 µM.

On to `CNC(=C[N+](=O)[O-])NCCSCc1ccc(CN(C)C)o1` [Ranitidine, ranitidine], for which the logBB in data set [5] (setting [11]) is reported as −1.23.

For `O=C(O)c1ccccc1O` [Salicylic acid, salicylic acid], the logMAbrain in data set [1] (setting [8]) and in data set [1] (setting [9]) was 1.30 each time. Also, in data set [2], the “logK^B/F” value is 1.37. Binding in data set [3] was put at a Kd of 640 µM.

Turning to `Cn1c(=O)c2[nH]cnc2n(C)c1=O` [Theophylline, theophylline], binding in data set [3] was characterised by a dissociation constant (Kd) of 810 µM.

On to `CSc1ccc2c(c1)N(CCC1CCCCN1C)c1ccccc1S2` (stereo not shown) [Thioridazine], for which the fu_brain in data set [6] is 0.001. This molecule also came in with a logMA_brain in data set [1] of 3.74.

Consider `CN1CCN(CCCN2c3ccccc3Sc3ccc(C(F)(F)F)cc32)CC1` [Trifluoperazine, trifluoperazine], for which the fu_brain in data set [6] was 0.0007. The “logMAbrain” value was 4.7 in data set [1] (PBS pH 7.4, quantified by UV measurement, 5 wells); 4.70 in data set [1] (setting [8]); 4.70 in data set [1] (setting [9]). The same molecule displayed a logMA_brain in data set [1] of 4.70. Also, the “logK^B/F” value in data set [2] is 2.17. Also, the Kd worked out at 0.25 µM in data set [3] and 12 µM in data set [4]. Moreover, the logBB in data set [5] (setting [10]) is reported as 1.44.
